# According to US7985876B2, “Substituted dibenzoic acid derivatives and use thereof” (Bayer Schering Pharma Aktiengesellschaft, priority 2007, dated 2011):
# Experiments:
# [1] = system: saphenous artery rings; test: Vasorelaxant effect in vitro (phenylephrine-contracted artery rings); assay type: cell-based, Rabbits; settings: Oryctolagus cuniculus; rabbit saphenous artery rings, contraction induced by phenylephrine
# Procedure: Rabbits are anesthetized and sacrificed by intravenous injection of thiopental sodium (about 50 mg/kg) and exsanguinated. The saphenous artery is removed and divided into rings 3 mm wide. The rings are mounted singly on in each case a pair of triangular hooks open at the end and made of 0.3 mm-thick special wire (Remanium®). Each ring is placed under an initial tension in 5 ml organ baths with Krebs-Henseleit solution which is at 37° C., is gassed with 95% O2/5% CO2 and has the following composition: NaCl 119 mM; KCl 4.8 mM; CaCl2×2H2O 1 mM; MgSO4×7H2O 1.4 mM; KH2PO4 1.2 mM; NaHCO3 25 mM; glucose 10 mM; bovine serum albumin 0.001%. The force of contraction is detected with Statham UC2 cells, amplified and digitized via A/D converters (DAS-1802 HC, Keithley Instruments, Munich) and recorded in parallel on chart recorders. Contractions are induced by addition of phenylephrine.
# After several (generally 4) control cycles, the substance to be investigated is added in each further run in increasing dosage, and the height of the contraction achieved under the influence of the test substance is compared with the height of the contraction reached in the last preceding run. The concentration necessary to reduce the contraction reached in the preceding control by 50% is calculated from this (IC50). The standard application volume is 5 μl. […]
# [2] = target: T1, Heme-containing sGC (recombinant soluble guanylate cyclase) (Rattus norvegicus, UniProt P20595); test: Stimulation of recombinant soluble guanylate cyclase (sGC) in vitro, heme-containing enzyme; assay type: biochemical
# T1 construct: made in house
# T1 sequence (P20595 1-619): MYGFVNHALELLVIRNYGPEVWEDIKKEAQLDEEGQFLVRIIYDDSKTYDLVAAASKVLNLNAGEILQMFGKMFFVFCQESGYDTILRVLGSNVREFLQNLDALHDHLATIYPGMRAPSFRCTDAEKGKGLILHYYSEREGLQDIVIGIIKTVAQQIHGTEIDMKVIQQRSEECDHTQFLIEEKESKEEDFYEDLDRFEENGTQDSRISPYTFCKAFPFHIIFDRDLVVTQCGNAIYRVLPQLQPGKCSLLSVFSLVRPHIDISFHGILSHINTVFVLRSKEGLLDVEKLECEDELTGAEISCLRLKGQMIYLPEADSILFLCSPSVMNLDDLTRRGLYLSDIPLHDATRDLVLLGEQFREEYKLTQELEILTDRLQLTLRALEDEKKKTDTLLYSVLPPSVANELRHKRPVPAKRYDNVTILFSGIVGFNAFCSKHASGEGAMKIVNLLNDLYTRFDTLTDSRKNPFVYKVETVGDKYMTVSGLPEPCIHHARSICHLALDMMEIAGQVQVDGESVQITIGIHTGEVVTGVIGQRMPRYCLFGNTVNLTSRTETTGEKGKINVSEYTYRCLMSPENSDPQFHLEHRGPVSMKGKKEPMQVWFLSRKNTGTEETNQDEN
# T1 sequence (P19686 1-690 partner): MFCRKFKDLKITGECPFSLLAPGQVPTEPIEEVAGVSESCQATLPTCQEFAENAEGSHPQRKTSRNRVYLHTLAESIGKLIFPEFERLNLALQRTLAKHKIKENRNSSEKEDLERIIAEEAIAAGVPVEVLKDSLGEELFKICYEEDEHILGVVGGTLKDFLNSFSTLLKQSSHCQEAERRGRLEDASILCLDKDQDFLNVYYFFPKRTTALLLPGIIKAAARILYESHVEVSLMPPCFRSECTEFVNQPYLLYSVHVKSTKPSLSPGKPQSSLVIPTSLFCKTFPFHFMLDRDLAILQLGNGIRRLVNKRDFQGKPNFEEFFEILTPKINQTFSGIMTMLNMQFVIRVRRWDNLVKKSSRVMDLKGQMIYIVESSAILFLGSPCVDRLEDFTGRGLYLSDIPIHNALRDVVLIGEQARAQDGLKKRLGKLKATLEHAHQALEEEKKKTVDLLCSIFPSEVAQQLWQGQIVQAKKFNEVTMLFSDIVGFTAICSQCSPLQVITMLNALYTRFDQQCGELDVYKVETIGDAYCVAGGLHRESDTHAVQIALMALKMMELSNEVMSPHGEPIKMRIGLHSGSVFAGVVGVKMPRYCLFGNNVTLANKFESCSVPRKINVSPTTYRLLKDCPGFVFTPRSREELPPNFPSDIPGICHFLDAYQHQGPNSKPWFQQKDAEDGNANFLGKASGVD
# Excerpt: Hoenicka, E. M. Becker, H. Apeler, T. Sirichoke, H. Schroeder, R. Gerzer and J.-P. Stasch, “Purified soluble guanylyl cyclase expressed in a baculovirus/Sf9 system: Stimulation by YC-1, nitric oxide, and carbon oxide”, J. Mol. Med. 77 (1999), 14-23. The heme-free guanylate cyclase is obtained by adding Tween 20 to the sample buffer (0.5% in the final concentration).
# (§1) The activation of sGC by a test substance is reported as n-fold stimulation of the basal activity.
# [3] = target: T2, Heme-free sGC (recombinant soluble guanylate cyclase) (Rattus norvegicus, UniProt P20595); test: Stimulation of recombinant soluble guanylate cyclase (sGC) in vitro, heme-free enzyme; assay type: biochemical
# T2 construct: made in house
# T2 sequence (P20595 1-619): T1 sequence (P20595 1-619)
# T2 sequence (P19686 1-690 partner): T1 sequence (P19686 1-690 partner)
# Procedure: Investigations on the stimulation of recombinant soluble guanylate cyclase (sGC) by the compounds according to the invention with and without sodium nitroprusside, and with and without the heme-dependent sGC inhibitor 1H-1,2,4-oxadiazole-(4,3a)-quinoxalin-1-one (ODQ) are carried out by the method described in detail in the following reference: M. Hoenicka, E. M. Becker, H. Apeler, T. Sirichoke, H. Schroeder, R. Gerzer and J.-P. Stasch, “Purified soluble guanylyl cyclase expressed in a baculovirus/Sf9 system: Stimulation by YC-1, nitric oxide, and […]”, J. Mol. Med. 77 (1999), 14-23. The heme-free guanylate cyclase is obtained by adding Tween 20 to the sample buffer (0.5% in the final concentration).
# as §1
structure (smiles),measurement,setting,value
"O=C(O)c1ccc(CCC(/C=C/c2cc(F)ccc2OCc2ccc(C(F)(F)F)cc2)CCc2ccc(C(=O)O)cc2)cc1 [Example 1, 4-[(4E)-3-[2-(4-Carboxyphenyl)ethyl]-5-(5-fluoro-2-{[4-(trifluoromethyl)benzyl]oxy}phenyl)pent-4-en-1-yl]benzoic acid]",IC50,[1],250 nM
same,"Stimulation (n-fold) heme-containing sGC, +0.1 μM DEA/NO",[2]; 0.01 μM Example 1,24.1 n-fold
same,"Stimulation (n-fold) heme-containing sGC, +10 μM ODQ",[2]; 0.01 μM Example 1,7.0 n-fold
same,"Stimulation (n-fold) heme-containing sGC, basal",[2]; 0.01 μM Example 1,1.3 n-fold
same,"Stimulation (n-fold) heme-containing sGC, +0.1 μM DEA/NO",[2]; 0.1 μM Example 1,25.5 n-fold
same,"Stimulation (n-fold) heme-containing sGC, +10 μM ODQ",[2]; 0.1 μM Example 1,16.2 n-fold
same,"Stimulation (n-fold) heme-containing sGC, basal",[2]; 0.1 μM Example 1,1.9 n-fold
same,"Stimulation (n-fold) heme-containing sGC, +0.1 μM DEA/NO",[2]; 1 μM Example 1,33.4 n-fold
same,"Stimulation (n-fold) heme-containing sGC, +10 μM ODQ",[2]; 1 μM Example 1,60.6 n-fold
same,"Stimulation (n-fold) heme-containing sGC, basal",[2]; 1 μM Example 1,6.4 n-fold
same,"Stimulation (n-fold) heme-containing sGC, +0.1 μM DEA/NO",[2]; 10 μM Example 1,41.5 n-fold
same,"Stimulation (n-fold) heme-containing sGC, +10 μM ODQ",[2]; 10 μM Example 1,92.2 n-fold
same,"Stimulation (n-fold) heme-containing sGC, basal",[2]; 10 μM Example 1,11.0 n-fold
same,Synergy with the NO donor DEA/NO on sGC stimulation,[2]; combination of Example 1 and DEA/NO,no synergistic effect
same,"Stimulation (n-fold) heme-free sGC, basal","[3]; 0.01 μM Example 1, heme-free by 0.5% Tween 20",1.0 n-fold
same,"Stimulation (n-fold) heme-free sGC, basal","[3]; 0.1 μM Example 1, heme-free by 0.5% Tween 20",2.3 n-fold
same,"Stimulation (n-fold) heme-free sGC, basal","[3]; 1 μM Example 1, heme-free by 0.5% Tween 20",9.1 n-fold
same,"Stimulation (n-fold) heme-free sGC, basal","[3]; 10 μM Example 1, heme-free by 0.5% Tween 20",16.7 n-fold
